Measured values from patent US9427438B2, “Compositions and methods for treating Alzheimer's disease” (EIP Pharma, LLC, priority 2011, dated 2016).

Assays:
[1] = animals; cited from earlier work
[2] = tested on: osteoarthritis model; conditions: rats, 50 mg/kg; cited from earlier work
[3] = cited from earlier work
[4] = tested on: hyperalgesia model; conditions: cited from earlier work
[5] = high doses; cited from earlier work
[6] = cited from earlier work; remark: listed apart in the source
[7] = tested on: IL-1β; assay: IL-1β ELISA of brain tissue of treated Tg2576 mice; format: in vivo, mouse; conditions: 3 mg/kg BID, 2 weeks, soluble dorsal cortex fraction
[8] = tested on: arthritis model; conditions: 10 mg/kg dose, reference compound; cited from earlier work
[9] = tested on: rodent arthritis models; conditions: cited from earlier work
[10] = dogs; cited from earlier work
[11] = tested on: Alzheimer's disease (AD) transgenic Tg2576 mouse model; assay: Amyloid plaque load by Aβ immunohistochemistry after 2-week oral treatment of Tg2576 mice; format: in vivo; conditions: Tg2576 mice aged 26 months, 3 mg/kg BID oral, 2 weeks
[12] = tested on: p38 MAPK; conditions: neurons preincubated in vitro; cited from earlier work

Row | SMILES | blood brain barrier penetration [1] | inhibition of knee degeneration compared to control animals [2] | adverse events in rheumatoid arthritis patients ([3]; 250 mg b.i.d., humans) | adverse neurological effects in humans [3] | therapeutically effective unit dose for the treatment of rheumatoid arthritis ([3]; humans) | effect on hyperalgesia at the lowest dose ([4]; 3 mg/kg dose) | inhibition of hyperalgesic response ([4]; rats, doses of 30 mg/kg, 10 mg/kg and 3 mg/kg) | adverse neurological effects in animals [5] | plasma protein binding [6] | IL-1β levels compared to wild-type or control animals [7] | inhibition of paw swelling [8] | anti-inflammatory activity [9] | brain levels relative to systemic levels [10] | decrease of amyloid plaque area in the cortex as compared with vehicle ([11]; cortex) | mean amyloid plaque area, cortex ([11]; cortex (vehicle control 27.7%)) | decrease of amyloid plaque area in the hippocampus as compared with vehicle ([11]; hippocampus) | mean amyloid plaque area, hippocampus ([11]; hippocampus (vehicle control 13.6%)) | blocking of the enhancement of MAPT phosphorylation [12]
1 | O=c1ncn2nc(Sc3ccc(F)cc3F)ccc2c1-c1c(Cl)cccc1Cl [VX-745] | known to penetrate the blood brain barrier (BBB) | statistically significant inhibition of knee degeneration | adverse events, including gastrointestinal effects such as diarrhea and abdominal pain, and elevations in liver transaminases | not observed in humans | 250 mg | minimal effect | significant inhibition of hyperalgesic response | experienced adverse neurological effects | highly protein-bound | no increases in IL-1β levels | not as effective at inhibiting paw swelling as other compounds assayed | significant anti-inflammatory activity | twice that of systemic levels | 32.5% | 18.7% | 61.8% | 5.2% | 
2 | C[S+]([O-])c1ccc(-c2nc(-c3ccc(F)cc3)c(-c3ccncc3)[nH]2)cc1 (stereo not drawn) [SB203580] |  |  |  |  |  |  |  |  |  |  |  |  |  |  |  |  |  | could be blocked
